# Legend:
# Type in all cases: cell-based
# [1] = test system: E-cadherin-associated p100/p120; experiment: E-cadherin immunoprecipitation and p100/p120 immunoblotting, MDCK I cells
# Excerpt: (§1) It has been shown that although some of the p100/p120 in cells is associated with adherens junctions, there is also a large pool that is not complexed with cadherins (at least by immunoprecipitation analysis). […] This procedure served to isolate only that portion of the cellular p100/p120 that associates with the cadherins. Following electrophoresis, and transfer to nitrocellulose, the p100 and p120 present in E-cadherin immunoprecipitates were detected by immunoblotting (Example 9A). […] In both cases, p100/p120 is shown to be present at regions of cell—cell contact.
# Whole cell lysates were prepared by rapidly replacing the culture medium in 6.5 mm with hot Laemmli sample buffer, followed by heating at 100° C. for 5 minutes. Immunoprecipitations were carried out at 4° C. Confluent monolayers of cells were washed rapidly with ice cold PBS (containing 0.9 mM CaCl2 and 0.5 mM MgCl2) before addition of 0.5 ml of the appropriate buffer. The filters were then gently scraped, and the lysate was removed and centrifuged at 14000× g. The supernatant was precleared with 10% (w/v) protein A-Sepharose in lysis buffer for 30-60 minutes. Appropriate primary antibodies were added to the lysate, and after 2-3 hours the immunecomplex was isolated, using rabbit anti-mouse secondary antibodies (Jackson Immunoresearch Labs Inc., West Grove, Pa.) and protein A-Sepharose. The beads were washed fives times with lysis buffer, and the bound protein was solubilized in SDS-sample buffer, followed by heating at 100° C. for 5 minutes.
# For Immunoprecipitations, Triton lysis buffer or TDS lysis buffer was used. Triton lysis buffer (pH adjusted to 7.4 using NaOH) contained 25 mM Hepes, 1% Triton X-100, 2 mM EDTA, 0.1 M NaCl, 25 mM NaF, 1 mM vanadate, and protease inhibitors. […]
# Cell extracts or immunoprecipitates in SDS sample buffer were resolved by SDS-PAGE. […] The filters were then extensively washed in PBS/0.5% Tween-20, and immunoreactive bands were detected by enhanced chemiluminescence (Amersham) following the manufacturers instructions.
# [2] = test system: p100/p120; experiment: immunofluorescence localisation of p100/p120, MDCK I cells; settings: PDB-treated vs control
# Excerpt: as §1
# Cells were fixed at room temperature for 20 minutes in 3% paraformaldehyde made up in PBS containing 0.5 mM CaCl2 and 0.5 mM MgSO4. Fixed cells were washed and then permeabilized by incubation with 0.5% Triton X-100 in PBS for 10 minutes. After washing, the cells were incubated for 30 minutes in PBS containing 10% calf serum and 0.1 M lysine, pH 7.4. Incubation with p120 antibody (0.5 μg/ml) was in PBS containing 10% calf serum for 1 hour. After washing, the cells were then incubated for 60 minutes with a 1:100 dilution of FITC-conjugated anti-mouse IgG (Jackson Immunoresearch Labs), in PBS containing 10% calf serum. After washing, the filters were mounted with Citifluor (Citifluor Products, Canterbury, UK) and examined using a Nikon Microphot-FXA fluorescence microscope fitted with 40× and 60× objectives. […]
# [3] = test system: p100/p120; experiment: phosphoamino acid (PAA) analysis of p100/p120, MDCK I cells; settings: PDB treatment
# Method: Following phosphate labelling, immunoprecipitation and visualisation of p100/p120 as in panel A above, the levels of p100/p120 protein were determined by immunoblotting. Thus it could be ascertained that approximately equal amounts of protein from PDB-treated and untreated cells were used for the PAA analysis. The p100/p120 bands were excised, and the proteins hydrolysed into their constituent amino acids by boiling in 5.7 M HCl. PAAs were then separated by two-dimensional electrophoresis, and detected by autoradiography. p100/p120 from control cells contains mainly phosphoserine (S), some phosphothreonine (T) and no detectable phosphotyrosine (Y). Following PDB treatment, both phosphoserine and phosphothreonine levels are reduced.
# For phosphoamino acid (PAA) analysis, MDCK I cells were labelled as above with [^32P]orthophosphate, and the p100 and p120 extracted from PDB-treated or untreated cells by immunoprecipitation (as above). Following transfer to Immobilon P, and immunoblotting to assess recovery of protein, the area of the filter containing p100 and p120 was excised. The proteins were hydrolysed at 110° C. for one hour in 5.7 M HCl to release PAAs. Following lyophilisation, two dimensional PAA separation and detection was carried out as previously described (Boyle et al., 1991).
smiles,measurement,setting,value
"CCCC(=O)O[C@@H]1[C@@H](C)[C@@]2(O)[C@@H](C=C(CO)C[C@]3(O)C(=O)C(C)=C[C@@H]23)[C@@H]2C(C)(C)[C@]12OC(=O)CCC [PDB, Phorbol-12,13-dibutyrate]",phosphorylation of E-cadherin-associated p100/p120,"[1]; PDB, Triton lysis buffer, E-cadherin immunoprecipitates",is dephosphorylated
same,phosphorylation of non-E-cadherin-associated p100/p120,"[1]; PDB, data not shown",subject to dephosphorylation
same,amount of p100 and p120 present in E-cadherin immunoprecipitates,[1]; after addition of PDB,no obvious change
same,localisation of p100 and p120,[2],no change in the localisation
same,phosphoserine and phosphothreonine levels of p100/p120,[3],reduced
same,reduction in phosphate signal (PAA densitometry),[3],approximately 40%

# — patent US6407058B1, “Modifying the permeability of physiological barriers” (Eisai Co., Limited, priority 1996, dated 2002)
